In patent US20230257480A1, “ENHANCING BLOOD-BRAIN BARRIER DRUG TRANSPORT BY TARGETING ENDOGENOUS REGULATORS” (THE BOARD OF TRUSTEES OF THE LELAND STANFORD JUNIOR …, priority 2019, published 2023):

Tests used:
[1] = test system: paracellular tight junctions; experiment: 3 kDa dextran tracer uptake probing paracellular permeability after ALPL inhibitor treatment; format: in vivo; settings: young and aged mice, vs vehicle
Excerpt: FIGS. 14A-14D are graphs illustrating flow cytometry quantification of brain endothelial cell uptake of plasma from young mice (3 m.o.) (FIG. 14A), plasma from aged mice (22 m.o.) (FIG. 14B), human holo-transferrin (hu-Tf) from aged mice (FIG. 14C), or transferrin receptor antibody (TfR Ab) from aged mice (FIG. 14D) treated with vehicle (grey) or anti-ALPL (green) via IP injections twice daily for three days, as assessed by % of BECs that are tracer^+ and relative MFI of tracer^+ BECs (for plasma, n=4; for hu-Tf, n=6 vehicle, n=5 anti-ALPL; for TfR Ab, n=9, two-sided t-test, mean+/−s.e.m.). Tracer refers to plasma, hu-Tf, or TfR Ab. FIG. 14E includes representative images of hu-Tf^+ neurons detected in the cortex of mice treated with ALPL inhibitor. Scale bar=40 microns. FIG. 14F includes graphs showing circulating human holo-transferrin and transferrin receptor antibody in blood plasma upon time of sacrifice to control for and ensure no differences in injected amount (for hu-Tf+, n=6 vehicle, n=5 anti-ALPL; for TfR Ab, n=9, two-sided t-test, mean+/−s.e.m.). […] FIG. 14H includes graphs illustrating flow cytometry quantification of brain endothelial cell and brain parenchymal cell uptake of 3 kDa dextran tracer, which probes for disruptions in paracellular permeability, in young mice (3 m.o.) and aged mice (22 m.o.) (n=6 vehicle, n=5 anti-ALPL, two-sided t-test, mean+/−s.e.m.). […]

brain endothelial cells = experiment: Flow cytometry of brain endothelial cell uptake of tracer after ALPL inhibitor treatment; format: in vivo, mice; settings: Atto 647N-labeled plasma, vs vehicle
Excerpt: FIGS. 14A-14D are graphs illustrating flow cytometry quantification of brain endothelial cell uptake of plasma from young mice (3 m.o.) (FIG. 14A), plasma from aged mice (22 m.o.) (FIG. 14B), human holo-transferrin (hu-Tf) from aged mice (FIG. 14C), or transferrin receptor antibody (TfR Ab) from aged mice (FIG. 14D) treated with vehicle (grey) or anti-ALPL (green) via IP injections twice daily for three days, as assessed by % of BECs that are tracer^+ and relative MFI of tracer^+ BECs (for plasma, n=4; for hu-Tf, n=6 vehicle, n=5 anti-ALPL; for TfR Ab, n=9, two-sided t-test, mean+/−s.e.m.). Tracer refers to plasma, hu-Tf, or TfR Ab. FIG. 14E includes representative images of hu-Tf^+ neurons detected in the cortex of mice treated with ALPL inhibitor. Scale bar=40 microns. […] FIG. 14H includes graphs illustrating flow cytometry quantification of brain endothelial cell and brain parenchymal cell uptake of 3 kDa dextran tracer, which probes for disruptions in paracellular permeability, in young mice (3 m.o.) and aged mice (22 m.o.) (n=6 vehicle, n=5 anti-ALPL, two-sided t-test, mean+/−s.e.m.).
CNS cell isolation adopted previously described methods42,139,140. […] For analysis of plasma uptake, at least 1,000 cells of each population of interest were analyzed per sample. […]

Q: How did the paracellular tight junctions [1] turn out when COc1ccc(OC)c(S(=O)(=O)Nc2cnc3ccccc3c2)c1 [ALPL inhibitor, 2,5-Dimethoxy-N-(quinolin-3-yl)benzenesulfonamide] was run?
A: The paracellular tight junctions was “did not perturb vascular morphology or compromise”.

Q: What about the “plasma uptake in brain endothelial cells, aged mice” value (brain endothelial cells; aged (22 m.o.) mice) of the same compound?
A: Its value is “increased”.

Q: And the “plasma uptake in brain endothelial cells, young mice” value (brain endothelial cells; young (3 m.o.) mice)?
A: The value was “increased”.
